From patent publication US20250263441A1 (Metanovas Biotech Inc., priority 2024, published 2025)
Several values for one entry are separate records, joined by “and”; a condition that tells them apart may be missing. Equal entries are not always repeated.

How the values were obtained:
Format in all cases: cell-based
[1] = tested on: Helicobacter pylori; assay: Inhibitory effect of AMP-33 on Helicobacter pylori; details: 5 and 10 μg/mL, 48 hours
Description: (1) Helicobacter pylori was cultured to the logarithmic phase. Then, 4.5 mL of the bacterial solution was centrifuged at 5,000 g for 6 minutes, and the organisms were resuspended in Wilkins-Chalgren medium. The concentration of the bacterial solution was adjusted to approximately 2× 10^5 CFU/mL using pre-configured McClure's turbidimetric tubes.
(2) Helicobacter pylori was cultured in a microtiter plate (96 wells), and 50 μL of different AMP33 peptides were added (at concentrations of 5 and 10 μg/mL). Next, 100 μL of diluted Helicobacter pylori bacterial fluid was added, followed by 50 μL of medium until the final concentration reached 1×10^5 CFU/mL.
(3) A blank control was provided with equal amounts of medium solution and bacterial solution as in the experimental group, with at least 3 replicates for each treatment group.
(4) The 96-well plate was placed in a bacterial incubator at 37° C. and incubated at 150 rpm for 48 hours.

[2] = tested on: Escherichia coli; assay: Minimum inhibitory concentration on Escherichia coli (liquid culture); details: 37° C., 24 to 48 hours
Description: Primary screening of liquid culture: the peptides in Examples 1 to 2 were dissolved in pure water to a concentration of 100 μg/mL. Using a micropipette, 10 μL of the peptides were added to a new 96-well plate in order from left to right, starting from the second compartment. Positive and negative controls were established for use. The 96-well plates were arranged vertically, and the peptide concentrations in the control groups were the same as those of the antimicrobial peptides. The control groups included: pure water and bacteria, antimicrobial peptide FK13 and bacteria, antimicrobial peptide HPA3NT3 and bacteria, and ciprofloxacin and bacteria. An aseptic medium was used.
If a 96-deep-well plate was used to culture bacteria, an additional 100 μL of sterile medium was added to all wells.
E. coli was inoculated in LB medium with normal oxygen concentration (21%) for 48 hours. E. coli clones were picked and incubated in LB medium at 37° C. with normal oxygen concentration (21%) for an additional 48 hours. The bacterial concentration was measured and diluted to 107 CFU/mL with culture medium for use.
The prepared fresh bacterial suspension was diluted to 105 CFU/mL and added to the 96-well plate with 90 μL of the bacterial suspension per well. The plate was incubated at 37° C. with a normal oxygen concentration for 24 to 48 hours (Propionibacterium acnes was cultured anaerobically at 37° C. for 24 to 48 hours in an anaerobic bag). The absorbance at 630 nm was measured using a microplate reader, and the degree of turbidity was observed by the naked eye.
(iv) Repetition of Operations: The Operations in (iii) were Repeated Twice, and the Decision to Perform a Third Repetition was Based on the Reproducibility of the Experiment.

[3] = tested on: Staphylococcus aureus (ATCC: 25913); assay: Inhibitory effect of AMP-33 on Staphylococcus aureus (viability, OD 630 nm); details: for Viability of Staphylococcus aureus: 24 hours, repeated experiments
Description: (1) Staphylococcus aureus and Escherichia coli were inoculated into LB liquid medium and cultured overnight under aerobic conditions at 37° C. and […] on a shaker.
(2) 200 μL of LB liquid culture medium and a predetermined concentration of peptide AMP-33 were added to a 96-deep-well plate. Then, 10 μL of the Staphylococcus aureus/Escherichia coli solution was inoculated (mixed well before inoculation).
(3) After incubating at […] for 24 hours on a shaking table at 37° C., the turbidity of the bacterial solution was observed. A volume of 100 μL of the solution was taken, and the OD at 630 nm was measured using an enzyme-linked immunosorbent assay (ELISA) reader (after multiple blows and mixing).
[formula] • OD Measurement: OD value of the test peptide. • ODneg: OD value with no bacterial inoculation, containing only […] medium. • ODpos: OD value with bacterial inoculation and without inhibitors.

With “Example 2: LSKWLKKLGKLLAG (designated as AMP33)” the “inhibitory activity against H. pylori” value [1] was “approximately 100%”, the “Minimum inhibitory concentration on Escherichia coli” value [2] was 50 mg/L and the “Viability of Staphylococcus aureus” value ([3]; 1 μg/mL) was 117.78 and 116.41 and 116.45. The “Viability of Staphylococcus aureus” value ([3]; 2 μg/mL) was 121.60 and 104.84 and 102.77, the “Viability of Staphylococcus aureus” value ([3]; 4 μg/mL) was 88.75 and 109.74 and 132.77 and the “Viability of Staphylococcus aureus” value ([3]; 8 μg/mL) was 98.53 and 99.19 and 97.03. The “inhibition of Staphylococcus aureus” value ([3]; 50 ppm) was “over 99%”.
